Patent publication US20220387410A1, “4-[5-[(rac)-1-[5-(3-Chlorophenyl)-3-isoxazolyl]ethoxy]-4-methyl-4H-1,2,4-triazol-3-yl]pyridine for use in prevention and/or treatment of surmenage in a mammal” (priority 2019, published 2022)
Read-outs that look alike come from different tables or passages of the source. Marks after values point to notes of the source that are not given here.

How the values were obtained:
[1] = tested on: Mice; details: p<0.001, cited from earlier work
[2] = tested on: dogs; details: cited from earlier work
[3] = tested on: cat or dog undergoing elective castration or ovariohysterectomy; experiment: Recovery after neutering, TT001 added as pre-medication (Example 1); format: in vivo
Method: To study recovery after neutering, cage demeanour scoring using a simple descriptive scale was used. The dogs were premedicated with acepromazine and pethidine, intermuscular (i.m.) in a first group, or in a second group TT001 was also added as pre-medication.
Twenty to forty minutes after pre-medication, the sedation was scored with the SDS (simple descriptive scale). The dogs were induced with propofol. Anesthesia was maintained with isoflurane in oxygen. Intraoperative analgesia was provided with morphine, prior to surgery. At the end of the surgery, group 1 received meloxicam, while group 2 received no additional treatment.
(§1) At the end of the procedure and recovery SDS was scored.

[4] = tested on: cat or dog undergoing elective castration or ovariohysterectomy; experiment: Recovery after neutering, TT001 plus meloxicam vs meloxicam (Example 2); format: in vivo
Method: To study recovery after neutering, cage demeanour scoring using a simple descriptive scale was used. The dogs were premedicated with acepromazine and pethidine, i.m. in a first group, and meloxicam orally or in a second group TT001 was also added as pre-medication.
Twenty to forty minutes after pre-medication the sedation was scored with the SDS (simple descriptive scale). The dogs were induced with propofol. Anesthesia was maintained with isoflurane in oxygen. Intraoperative analgesia was provided with morphine, prior to surgery. At the end of the surgery, group 1 continued to receive meloxicam, while group 2 continued to receive TT001 as well as meloxicam. No additional treatment was administered.
as §1

[5] = tested on: mouse FST behavior; experiment: Forced Swim Test; format: in vivo; details: for Immobility duration: mouse FST, vehicle 112.5 ± 14.10
Text: TT001 has been used in the Forced Swim Test. _For protocol see Can A., et al., The Mouse Forced Swim Test, J Vis Exp. 2012; (59): 3638.

[6] = tested on: rats; experiment: Learned helplessness studies; format: in vivo, rat
Text: Nomura S. et al., Studies on animal model of depression: review and perspective, Review, Yakubutsu Seishin Kodo, 1989 December; 9(4):349-58.
TT001 was used in learned helplessness studies in rats.

[7] = tested on: dogs; experiment: Toxicological studies in dogs, maximum 52 weeks, gavage; format: in vivo, dog; details: dogs, 2, 6, 7 or 31 mg/kg by gavage, after 52 weeks
Method: Toxicological studies for TT001 in dogs, were performed on dogs using 2, 6, 7 or 31 mg/kg, for a maximum of 52 weeks. The dogs were fed with gavage throughout this period and blood samples were taken throughout the period.
Balcome at al Contemporary Topics 2004 by the American Association for Laboratory Animal Science. Vol 43. […] In addition, the animals are separated and live in small areas which further increase the stress.

[8] = Dissolution of TT001 in I.V. formulation vehicle; format: physicochemical; details: 0.1-10 mg/mL in 40% w/v HPβCD in water for injection; a couple of hours for complete dissolution
Method: Formulation Method for the Preparation of TT001 for I.V. Dosing, 0.1 to 10 mg/ml
The formulation method is applicable at concentrations in formulation between 0.1 and 10 mg/mL corresponding to 0.262 and 26.2 μmol/mL
Preparation of 40% w/v HPβCD solution in water for injection
Preparation of TT001 I.V. formulations between 0.1 and 10 mg/ml

[9] = tested on: TLESR; details: healthy volunteers, cited from earlier work
[10] = tested on: humans; details: cited from earlier work
[11] = cat or dog undergoing elective castration or ovariohysterectomy
[12] = group 2 (TT001 pre-medication) vs group 1
[13] = group 2 (TT001 + meloxicam) vs group 1 (meloxicam)

CN1CC(=O)NC1=NC(=O)Nc1cccc(Cl)c1 [Fenobam]
stress-induced hyperthermia (SIH) ([1]; 10 mg/kg): significantly reversed | stress-induced hyperthermia (SIH) ([1]; 30 mg/kg): significantly reversed

COc1cccc(C2(O)CCCCC2CN(C)C)c1 (centres unmarked) [Tramadol]
pain killer effect [2]: not present

C[C@@H](Oc1nnc(-c2ccncc2)n1C)c1cc(-c2cccc(Cl)c2)on1 [TT001, 4-[5-[(1R)-1-[5-(3-Chlorophenyl)-3-isoxazolyl]ethoxy]-4-methyl-4H-1,2,4-triazol-3-yl]pyridine]
effect on duration of the recovery period [3, 11]: positive effect | cortisol values ([3]; group 2 (TT001) vs commonly used anesthesia protocol): Lower | Time to extubation ([3]; group 2 (TT001 added as pre-medication) vs group 1 (acepromazine, pethidine; meloxicam after surgery)): shorter | Time to lifting the head after surgery [3, 12]: shorter | Time to raising from the bed after surgery [3, 12]: shorter | Time to start of spontaneous/voluntary urination after surgery [3, 12]: shorter | Time to starting to eat after surgery [3, 12]: shorter | nausea [3, 12]: Less | effect on duration for the recovery period [4, 11]: positive effect | Time to extubation [4, 13]: shorter | Time to lifting the head after surgery [4, 13]: shorter | Time to raising from the bedding after surgery [4, 13]: shorter | Time to start of spontaneous/voluntary urination after surgery [4, 13]: shorter | Time to starting to eat after surgery [4, 13]: shorter | cortisol values [4, 13]: Lower | nausea [4, 13]: Less | time in intensive care/PACU unit [4, 13]: Less | Immobility duration ([5]; TT001 3 μmol/kg): 51.15 ± 7.788 ^a sec | Immobility duration ([5]; TT001 10 μmol/kg): 47.45 ± 11.45 ^a sec | Immobility duration ([5]; TT001 30 μmol/kg): 44.83 ± 4.693 ^a sec | signs of gastric ulcer or changes in mucosa ([5]; test animals of the mouse Forced Swim Test): none of the test animals had signs of gastric ulcer | Escape Failures, Day 4 Mean ([6]; 1.8 μmol/kg, vehicle 11.1): 2.2 | Escape Failures, Day 3 Mean ([6]; 1.8 μmol/kg, vehicle 23.2): 6.9 | Escape Failures, Total Day 3 + Day 4 ([6]; 1.8 μmol/kg, vehicle 34.25, p < 0.05 vs vehicle): 9.1 ^a | stomach ulcers ([6]; learned helplessness studies): did not appear | signs of gastric ulcer [7]: none of the animals showed signs of gastric ulcer | dissolution [8]: moderate | effect on TLESR ([9]; 13 mg (about 0.19 mg/kg), 2 to 3 hours after food-intake): some effect | side effects ([9]; high doses of 13 mg): Some serious side effects | effect on reflux ([9]; prior to food intake and 1-2 hours after food intake): no significant effect | effect on anxiety ([10]; humans): no effect | clinical effect in all indications (chronic pain, anxiety, GERD) ([10]; man, oral, clinical development discontinued): lack of effect
